The source of these data is PMC7187312 (The New Phytologist, 2020).

In the experiment the test system is Spinacia oleracea PM H^+-ATPase preincubated with FC/14-3-3 or TeA/14-3-3. Type of experiment: biochemical.

Regarding `C=CC(C)(C)OC[C@H]1O[C@H](O[C@@H]2C3=C([C@H](C)COC(C)=O)C[C@H](O)[C@]3(C)/C=C3/[C@@H](COC)CC[C@H]3[C@@H](C)[C@H]2O)[C@H](O)[C@@H](OC(C)=O)[C@@H]1O` [FC, Fusicoccin], the “effect on PM H^+-ATPase activity” value was “activate” and the specific activity worked out at 44.1 Pi mg^−1 protein min^−1.
